Values of other authors in patent US20170105937A1, “OLAPARIB CO-PRECIPITATE AND PREPARATION METHOD THEREOF” (CADILA HEALTHCARE LIMITED, priority 2015, published 2017).

Conditions: poor solubility and moderate permeability

Compound: O=C(c1cc(Cc2n[nH]c(=O)c3ccccc23)ccc1F)N1CCN(C(=O)C2CC2)CC1 [Olaparib, 4-[3-(4-cyclopropanecarbonyl-piperazine-1-carbonyl)-4-fluoro-benzyl]-2H-phthalazin-1-one]
- Biopharmaceutics Classification System (BCS) class: class 4
